Experimental data taken from patent US10375962B2, “Heterocycle derivatives as pesticides” (BAYER CROPSCIENCE AKTIENGESELLSCHAFT, priority 2016, dated 2019).
Where two headings read alike, the source gives them in different places.

Experiments:
[1] = test system: larvae of the mustard beetle (Phaedon cochleariae); assay: Phaedon cochleariae - spray test; type: in vivo; details: after 7 days
Protocol: Solvent: 78.0 parts by weight of acetone • • 1.5 parts by weight of dimethylformamide
Emulsifier: alkylaryl polyglycol ether
(§1) To produce a suitable active compound formulation, 1 part by weight of active compound is dissolved with the stated parts by weight of solvent and made up with water containing an emulsifier concentration of 1000 ppm until the desired concentration is attained. To produce further test concentrations, the formulation is diluted with emulsifier-containing water.
Discs of Chinese cabbage leaves (Brassica pekinensis) are sprayed with an active compound formulation of the desired concentration and, after drying, populated with larvae of the mustard beetle (Phaedon cochleariae).
After 7 days, the efficacy in % is determined. 100% means that all the beetle larvae have been killed and 0% means that none of the beetle larvae have been killed.

[2] = test system: caterpillars of the armyworm (Spodoptera frugiperda); assay: Spodoptera frugiperda - spray test; type: in vivo; details: maize leaf discs, after 7 days
Protocol: Solvent: 78.0 parts by weight of acetone • • 1.5 parts by weight of dimethylformamide Emulsifier: alkylaryl polyglycol ether […] To produce further test concentrations, the formulation is diluted with emulsifier-containing water. Leaf discs of maize (Zea mays) are sprayed with an active compound preparation of the desired concentration and, after drying, populated with caterpillars of the armyworm (Spodoptera frugiperda).

[3] = log P by HPLC on a reversed-phase column (C 18), EEC Directive 79/831 Annex V.A8; type: physicochemical; details: for chromatographic logP: reversed-phase HPLC column (C 18)
Text: Called log P (HCOOH) in the table.
Called log P (neutral) in the table.

[4] = test system: green peach aphid (Myzus persicae); assay: Myzus persicae - spray test (Chinese cabbage leaf discs); type: in vivo; details: after 5 days
Protocol: Solvent: 78 parts by weight of acetone • • 1.5 parts by weight of dimethylformamide Emulsifier: alkylaryl polyglycol ether
as §1
Discs of Chinese cabbage leaves (Brassica pekinensis) infested by all stages of the green peach aphid (Myzus persicae) are sprayed with an active compound formulation of the desired concentration.
After 5 days, the efficacy in % is determined. 100% means that all the aphids have been killed and 0% means that none of the aphids have been killed.

[5] = test system: L1 larvae of the Australian sheep blowfly (Lucilia cuprina); assay: Lucilia cuprina test; type: in vivo; details: application rate 100 ppm; after 2 days
Protocol: Solvent: dimethyl sulphoxide
To produce a suitable active compound formulation, 10 mg of active compound are mixed with 0.5 ml of dimethyl sulphoxide, and the concentrate is diluted with water to the desired concentration.
About 20 L1 larvae of the Australian sheep blowfly (Lucilia cuprina) are transferred into a test vessel containing minced horsemeat and the active compound formulation of the desired concentration.
After 2 days, the kill in % is determined. 100% means that all the larvae have been killed; 0% means that no larvae have been killed.

[6] = acidic range, pH 2.7, 0.1% aqueous formic acid/acetonitrile, 55° C.
[7] = neutral range, pH 7.8, 0.001 molar aqueous ammonium hydrogencarbonate/acetonitrile, 55° C.

## CCS(=O)(=O)c1ccc(-n2nnc3ccc(Cl)cc32)nc1-c1nc2cc(C(F)(F)F)ncc2n1C [Example I-49]
[1]; application rate 100 g/ha
  efficacy: 100%
[2]; application rate 100 g/ha
  efficacy: 100%
[3]; [6]
  LOGP_HCOOH (log P (HCOOH)): 3.74
[3]; [7]
  LOGP_NEUTRAL (log P (neutral)): 3.74

## CCS(=O)(=O)c1ccc(-n2ccc3ncccc32)nc1-c1nc2cc(C(F)(F)F)ncc2n1C [Example I-20]
[3]; [6]
  LOGP_HCOOH (log P (HCOOH)): 1.75
[3]; [7]
  LOGP_NEUTRAL (log P (neutral)): 2.47

## CCS(=O)(=O)c1ccc(-n2cc3c(Cl)cc(C(F)(F)F)cn3c2=O)nc1-c1nc2cc(C(F)(F)F)ncc2n1C [Example I-12]
[1]; application rate 100 g/ha
  efficacy: 100%
[1]; application rate 500 g/ha
  efficacy: 100%
[2]; application rate 100 g/ha
  efficacy: 100%
[2]; application rate 500 g/ha
  efficacy: 100%
[3]; pH 2.7
  LOGP_HCOOH (log P (HCOOH)): 4.27
[3]; pH 7.8
  LOGP_NEUTRAL (log P (neutral)): 4.18
[4]; application rate 100 g/ha
  efficacy: 90%
[4]; application rate 500 g/ha
  efficacy: 90%

## CCS(=O)(=O)c1ccc(-c2cc3ccccc3n2C)nc1-c1nc2cc(C(F)(F)F)ncc2n1C [Example I-4]
[3]; pH 2.7
  LOGP_HCOOH (log P (HCOOH)): 3.90
[3]; pH 7.8
  LOGP_NEUTRAL (log P (neutral)): 3.83
[5]
  efficacy (kill): 90%

## CCS(=O)(=O)c1ccc(-n2c(=O)oc3ccccc32)nc1-c1nc2cc(C(F)(F)F)ncc2n1C [Example I-41]
[3]; [6]
  LOGP_HCOOH (log P (HCOOH)): 3.25
[3]; [7]
  LOGP_NEUTRAL (log P (neutral)): 3.26

## CCS(=O)(=O)c1ccc(-n2nc3ccc(Cl)nn3c2=O)nc1-c1nc2cc(C(F)(F)F)ncc2n1C [Example I-42]
[1]; application rate 100 g/ha
  efficacy: 100%
[3]; pH 2.7
  LOGP_HCOOH (log P (HCOOH)): 2.42
[3]; pH 7.8
  LOGP_NEUTRAL (log P (neutral)): 2.38

## CCS(=O)(=O)c1ccc(-n2cnc3ccc(OC)cc32)nc1-c1nc2cc(C(F)(F)F)ncc2n1C [Example I-30]
[3]; pH 2.7
  LOGP_HCOOH (log P (HCOOH)): 2.69
[3]; pH 7.8
  LOGP_NEUTRAL (log P (neutral)): 2.67

## CCS(=O)(=O)c1ccc(-c2cn(C)c3ccccc23)nc1-c1nc2cc(C(F)(F)F)ncc2n1C [Example I-1, 2-[3-(Ethylsulphonyl)-6-(1-methyl-1H-indol-3-yl)pyridin-2-yl]-3-methyl-6-(trifluoromethyl)-3H-imidazo[4,5-c]pyridine]
[3]; acidic range, pH 2.7, 0.1% aqueous formic acid/acetonitrile, 55° C., read-out: LOGP_HCOOH (log P (HCOOH))
  chromatographic logP: 3.55
[3]; neutral range, pH 7.8, 0.001 molar aqueous ammonium hydrogencarbonate/acetonitrile, 55° C., read-out: LOGP_NEUTRAL (log P (neutral))
  chromatographic logP: 3.45

## CCS(=O)(=O)c1ccc(-n2ncc3cccc(Cl)c32)nc1-c1nc2cc(C(F)(F)F)ncc2n1C [Example I-8]
[3]; [6]
  LOGP_HCOOH (log P (HCOOH)): 3.44
[3]; [7]
  LOGP_NEUTRAL (log P (neutral)): 3.34

## CCS(=O)(=O)c1ccc(-n2ccc3ccccc32)nc1-c1nc2cc(C(F)(F)F)ncc2n1C [Example I-26]
[3]; [6]
  LOGP_HCOOH (log P (HCOOH)): 3.72
[3]; [7]
  LOGP_NEUTRAL (log P (neutral)): 3.65

## CCS(=O)(=O)c1ccc(-n2c(=O)[nH]c3ccccc32)nc1-c1nc2cc(C(F)(F)F)ncc2n1C [Example I-45]
[3]; pH 2.7
  LOGP_HCOOH (log P (HCOOH)): 2.59
[3]; pH 7.8
  LOGP_NEUTRAL (log P (neutral)): 2.62

## CCS(=O)(=O)c1ccc(-c2ccc3cn(C)nc3c2)nc1-c1nc2cc(C(F)(F)F)ncc2n1C [Example I-14]
[2]; application rate 100 g/ha
  efficacy: 100%
[2]; application rate 500 g/ha
  efficacy: 100%
[3]; pH 2.7
  LOGP_HCOOH (log P (HCOOH)): 2.71
[3]; pH 7.8
  LOGP_NEUTRAL (log P (neutral)): 2.65
[4]; application rate 500 g/ha
  efficacy: 70%

## CCS(=O)(=O)c1ccc(-c2cccc3nn(C)cc23)nc1-c1nc2cc(C(F)(F)F)ncc2n1C [Example I-16]
[1]; application rate 500 g/ha
  efficacy: 83%
[3]; pH 2.7
  LOGP_HCOOH (log P (HCOOH)): 2.73
[3]; pH 7.8
  LOGP_NEUTRAL (log P (neutral)): 2.67

## CCS(=O)(=O)c1ccc(N2C(=O)c3ccccc3C2=O)nc1-c1nc2cc(C(F)(F)F)ncc2n1C [Example I-40]
[1]; application rate 100 g/ha
  efficacy: 100%
[1]; application rate 500 g/ha
  efficacy: 100%
[3]; pH 2.7
  LOGP_HCOOH (log P (HCOOH)): 2.92
[3]; pH 7.8
  LOGP_NEUTRAL (log P (neutral)): 2.96

## CCS(=O)(=O)c1ccc(-n2ccc3ccc(Cl)cc32)nc1-c1nc2cc(C(F)(F)F)ncc2n1C [Example I-23]
[3]; pH 2.7
  LOGP_HCOOH (log P (HCOOH)): 4.04
[3]; pH 7.8
  LOGP_NEUTRAL (log P (neutral)): 4.04
[4]; application rate 500 g/ha
  efficacy: 90%

## CCS(=O)(=O)c1ccc(-n2cccc3oc(=O)nc2-3)nc1-c1nc2cc(C(F)(F)F)ncc2n1C [Example I-51]
[3]; pH 2.7
  LOGP_HCOOH (log P (HCOOH)): 2.09
[3]; pH 7.8
  LOGP_NEUTRAL (log P (neutral)): 2.08

## CCS(=O)(=O)c1ccc(-n2ccc3cccnc32)nc1-c1nc2cc(C(F)(F)F)ncc2n1C [Example I-29]
[2]; application rate 100 g/ha
  efficacy: 100%
[2]; application rate 500 g/ha
  efficacy: 100%
[3]; pH 2.7
  LOGP_HCOOH (log P (HCOOH)): 3.76
[3]; pH 7.8
  LOGP_NEUTRAL (log P (neutral)): 3.74
[5]
  efficacy (kill): 100%

## CC[S+]([O-])c1ccc(-n2cc3cccnc3n2)nc1-c1nc2cc(C(F)(F)F)ncc2n1C (stereo not shown) [Example I-13]
[3]; pH 2.7
  LOGP_HCOOH (log P (HCOOH)): 2.46
[3]; pH 7.8
  LOGP_NEUTRAL (log P (neutral)): 2.45

## CCS(=O)(=O)c1ccc(N2Cc3cccnc3C2=O)nc1-c1nc2cc(C(F)(F)F)ncc2n1C [Example I-46]
[3]; pH 2.7
  LOGP_HCOOH (log P (HCOOH)): 2.26
[3]; pH 7.8
  LOGP_NEUTRAL (log P (neutral)): 2.30

## CCS(=O)(=O)c1ccc(-n2c(=O)[nH]c3ccc(Cl)cc32)nc1-c1nc2cc(C(F)(F)F)ncc2n1C [Example I-48]
[3]; pH 2.7
  LOGP_HCOOH (log P (HCOOH)): 2.97

## CCS(=O)(=O)c1ccc(-n2ccc3nccc(Cl)c32)nc1-c1nc2cc(C(F)(F)F)ncc2n1C [Example I-19]
[1]; application rate 100 g/ha
  efficacy: 100%
[1]; application rate 500 g/ha
  efficacy: 100%
[3]; pH 2.7
  LOGP_HCOOH (log P (HCOOH)): 2.51
[3]; pH 7.8
  LOGP_NEUTRAL (log P (neutral)): 2.69
[4]; application rate 100 g/ha
  efficacy: 90%
[4]; application rate 500 g/ha
  efficacy: 70%

## CCS(=O)(=O)c1ccc(-n2nnc3cc(Cl)ccc32)nc1-c1nc2cc(C(F)(F)F)ncc2n1C [Example I-50]
[1]; application rate 100 g/ha
  efficacy: 100%
[2]; application rate 100 g/ha
  efficacy: 100%
[3]; [6]
  LOGP_HCOOH (log P (HCOOH)): 3.72
[3]; [7]
  LOGP_NEUTRAL (log P (neutral)): 3.77

## CCS(=O)(=O)c1ccc(-n2ncc3cc(Cl)ccc32)nc1-c1nc2cc(C(F)(F)F)ncc2n1C [Example I-9]
[3]; pH 2.7
  LOGP_HCOOH (log P (HCOOH)): 4.03
[3]; pH 7.8
  LOGP_NEUTRAL (log P (neutral)): 4.03

## CCS(=O)(=O)c1ccc(N2Cc3cc(OC)ccc3C2=O)nc1-c1nc2cc(C(F)(F)F)ncc2n1C [Example I-38]
[2]; application rate 100 g/ha
  efficacy: 100%
[3]; pH 2.7
  LOGP_HCOOH (log P (HCOOH)): 3.29
[3]; pH 7.8
  LOGP_NEUTRAL (log P (neutral)): 3.32

## CCS(=O)(=O)c1ccc(-n2c(=O)[nH]c3cc(Cl)ccc32)nc1-c1nc2cc(C(F)(F)F)ncc2n1C [Example I-47]
[3]; pH 2.7
  LOGP_HCOOH (log P (HCOOH)): 3.05

## CCS(=O)(=O)c1ccc(-n2ncc3ccncc32)nc1-c1nc2cc(C(F)(F)F)ncc2n1C [Example I-7]
[1]; application rate 100 g/ha
  efficacy: 100%
[1]; application rate 500 g/ha
  efficacy: 100%

## CCS(=O)(=O)c1ccc(-n2cnc3ccc(Cl)nc32)nc1-c1nc2cc(C(F)(F)F)ncc2n1C [Example I-33]
[1]; application rate 100 g/ha
  efficacy: 100%
[1]; application rate 500 g/ha
  efficacy: 100%
[2]; application rate 100 g/ha
  efficacy: 100%
[2]; application rate 500 g/ha
  efficacy: 100%
[3]; pH 2.7
  LOGP_HCOOH (log P (HCOOH)): 3.25
[3]; pH 7.8
  LOGP_NEUTRAL (log P (neutral)): 3.20
[4]; application rate 500 g/ha
  efficacy: 90%

## CCS(=O)(=O)c1ccc(-n2ccc3cc(Cl)ccc32)nc1-c1nc2cc(C(F)(F)F)ncc2n1C [Example I-25]
[3]; [6]
  LOGP_HCOOH (log P (HCOOH)): 4.10
[3]; [7]
  LOGP_NEUTRAL (log P (neutral)): 4.09

## CCS(=O)(=O)c1ccc(-n2c(=O)n(C)c3ccccc32)nc1-c1nc2cc(C(F)(F)F)ncc2n1C [Example I-44]
[3]; pH 2.7
  LOGP_HCOOH (log P (HCOOH)): 3.10
[3]; pH 7.8
  LOGP_NEUTRAL (log P (neutral)): 3.06

## CCS(=O)(=O)c1ccc(-n2nnc3ccc(Cl)nc32)nc1-c1nc2cc(C(F)(F)F)ncc2n1C [Example I-37]
[3]; pH 2.7
  LOGP_HCOOH (log P (HCOOH)): 2.96
[3]; pH 7.8
  LOGP_NEUTRAL (log P (neutral)): 3.00
[4]; application rate 100 g/ha
  efficacy: 90%
